PubChem BioAssay AID602168 (The Scripps Research Institute Molecular Screening Center, 2012)
The source made the active and inactive calls. No rule for the calls is given here.

Each molecule was assayed against Nuclear receptor coactivator 1 (Homo sapiens) (UniProt Q15788) (assay: NCOA1 reporter inhibition potency – cell-based, luminescence, counter-screen for SRC3 inhibitor project, dose response (AID 602168)). Conditions: Cell-based SRC1 luciferase reporter.
Nuclear receptor coactivator 1 (Homo sapiens), sequence (Q15788 whole entry, looked up): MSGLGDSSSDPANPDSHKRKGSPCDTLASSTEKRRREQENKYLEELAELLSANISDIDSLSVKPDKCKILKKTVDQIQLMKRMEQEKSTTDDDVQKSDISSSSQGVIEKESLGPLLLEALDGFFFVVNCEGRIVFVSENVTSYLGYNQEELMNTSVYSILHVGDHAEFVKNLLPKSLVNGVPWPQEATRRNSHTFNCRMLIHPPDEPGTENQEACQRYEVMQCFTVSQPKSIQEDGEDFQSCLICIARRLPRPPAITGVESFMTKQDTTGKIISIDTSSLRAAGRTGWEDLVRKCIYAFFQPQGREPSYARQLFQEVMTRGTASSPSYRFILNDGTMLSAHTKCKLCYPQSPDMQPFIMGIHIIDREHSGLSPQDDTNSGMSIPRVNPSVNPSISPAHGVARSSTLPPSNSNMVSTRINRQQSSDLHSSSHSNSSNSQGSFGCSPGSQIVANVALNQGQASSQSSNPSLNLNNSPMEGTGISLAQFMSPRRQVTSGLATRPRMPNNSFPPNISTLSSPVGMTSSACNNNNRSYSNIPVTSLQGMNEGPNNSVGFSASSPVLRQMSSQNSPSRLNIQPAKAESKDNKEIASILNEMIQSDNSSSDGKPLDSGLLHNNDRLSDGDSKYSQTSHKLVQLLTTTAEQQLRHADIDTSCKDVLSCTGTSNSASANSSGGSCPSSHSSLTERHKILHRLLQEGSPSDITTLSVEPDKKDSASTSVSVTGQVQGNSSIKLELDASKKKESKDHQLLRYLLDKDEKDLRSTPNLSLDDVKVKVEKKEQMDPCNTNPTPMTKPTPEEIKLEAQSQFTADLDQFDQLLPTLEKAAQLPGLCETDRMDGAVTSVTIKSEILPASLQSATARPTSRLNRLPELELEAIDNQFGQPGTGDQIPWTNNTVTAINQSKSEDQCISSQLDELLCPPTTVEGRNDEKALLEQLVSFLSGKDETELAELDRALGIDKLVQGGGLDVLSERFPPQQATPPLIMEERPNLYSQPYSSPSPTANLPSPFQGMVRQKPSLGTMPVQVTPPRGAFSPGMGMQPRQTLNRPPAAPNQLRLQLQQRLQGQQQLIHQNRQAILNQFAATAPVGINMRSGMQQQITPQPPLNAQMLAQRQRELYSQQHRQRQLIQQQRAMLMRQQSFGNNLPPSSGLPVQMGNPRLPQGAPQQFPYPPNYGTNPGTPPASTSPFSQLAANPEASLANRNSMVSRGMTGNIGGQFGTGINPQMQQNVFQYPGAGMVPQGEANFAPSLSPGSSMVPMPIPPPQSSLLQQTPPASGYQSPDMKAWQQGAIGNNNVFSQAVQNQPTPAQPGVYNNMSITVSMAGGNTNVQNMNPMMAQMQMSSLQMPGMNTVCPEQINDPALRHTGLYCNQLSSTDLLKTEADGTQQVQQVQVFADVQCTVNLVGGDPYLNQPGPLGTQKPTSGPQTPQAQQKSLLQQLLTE
`CN1C(=O)C2(C(C#N)=C(N)N(c3cc(Cl)cc(Cl)c3)C3=C2C(=O)CCC3)c2ccccc21` (stereo not given) was tested, and the IC50 was > 35.9 µM (inactive).
`C[C@@H](C(=O)Nc1ccc2c(c1)OCCO2)n1c(=O)[nH]c2ccccc2c1=O` was tested, and the IC50 was > 35.9 µM (inactive).
In the case of `CC(=O)OCCN1c2ccccc2Sc2cnccc21`, the IC50 is reported as “inactive”.
`CCOc1ccc(/C=C2\SC(=S)N(CCC(=O)O)C2=O)cc1` was tested, and the IC50 was 9.2 µM.
For `CNC(=O)c1cccn(Cc2ccc(C(F)(F)F)cc2)c1=O`, the IC50 was > 35.8 µM (inactive).
For `c1ccc(-c2noc(-c3ccc4ccccc4c3)n2)nc1`, the IC50 was “inactive”.
In the case of `CC(C)(C)C(=O)Nc1ccc(N=Nc2ccccc2)cc1`, the IC50 is reported as > 35.9 µM (inactive).
`O=[N+]([O-])c1nn(-c2ccc3c(c2)OCCO3)n(O)c1=Nc1ccccc1` gave an IC50 of 0.812 µM.
In the case of `O=C(NCCc1ccccc1)c1ccc2c(c1)OCCO2`, the IC50 is reported as “inactive”.
With `CCCCN1C=CC(=C2C(=O)c3ccccc3C2=O)C=C1` the IC50 was > 35.9 µM (inactive).
For `NC(=O)c1cc(Sc2ccccc2)nc2ccccc12`, the IC50 was “inactive”.
In the case of `c1cc2[nH]snc2c2nc(C3CC3)nc12`, the IC50 is reported as “inactive”.
For `CC1CCN(C2=NC(=O)/C(=C/c3ccccc3F)S2)CC1`, the IC50 was > 35.9 µM (inactive).
For `Cc1cc(/C=C2\Cc3ccccc3C2=O)c(C)n1-c1ccccc1`, the IC50 was “inactive”.
`CCOC(=O)c1cc2sccc2n1CC(=O)N1CCc2ccccc21` was tested, and the IC50 was > 35.9 µM (inactive).
In the case of `COC(=O)c1c(C)n(-c2ccc(OC)cc2)c2ccc(O)cc12`, the IC50 is reported as 8.12 µM.
For `Cc1nnc(SC(=O)N2c3ccccc3Sc3ccccc32)s1`, the IC50 was > 35.9 µM (inactive).
For `O=C(OCCC12CC3CC(CC(C3)C1)C2)c1ccc(NCc2cc(O)ccc2O)cc1`, the IC50 was “inactive”.
With `CN1C(=O)C2(C(C#N)=C(N)N(c3cc(Cl)cc(Cl)c3)C3=C2C(=O)CC(C)(C)C3)c2ccccc21` (stereo not given) the IC50 was > 35.9 µM (inactive).
`O=S(=O)(c1ccc(F)cc1)c1snnc1-c1ccccc1` was tested, and the IC50 was > 35.9 µM (inactive).
With `COc1ccc(-c2nsc3c(N4CCCCC4)ncnc23)cc1` the IC50 was > 35.9 µM (inactive).
`Nc1ncnc(NCc2ccccc2)c1[N+](=O)[O-]` was tested, and the IC50 was “inactive”.
In the case of `CC[C@@]1(O)C(=O)OCc2c1cc1n(c2=O)Cc2cc3c(NC(=O)CN)cccc3nc2-1`, the IC50 is reported as 3.78 µM.
In the case of `COc1ccc(OC)c(Cc2cnc3nc(N)nc(N)c3c2C)c1`, the IC50 is reported as > 35.9 µM (inactive).
For `O=C(CCl)NC(Cc1ccccc1)c1ccccc1` (stereo not given), the IC50 was “inactive”.
In the case of `O=C(CNc1cccc([N+](=O)[O-])c1)N/N=C/c1ccc([N+](=O)[O-])o1`, the IC50 is reported as > 35.9 µM (inactive).
`Cc1ccc2nc(-c3ccncc3)c(NC3CCCC3)n2c1` was tested, and the IC50 was “inactive”.
With `C#CC(=O)N(c1cc(OC)ccc1OC)C(C(=O)NC1CCCC1)c1cccs1` (stereo not given) the IC50 was > 35.9 µM (inactive).
In the case of `O=C(Nc1cccnc1)c1ccc(C(=O)Nc2cccnc2)cc1`, the IC50 is reported as > 35.9 µM (inactive).
For `COc1cccc(NC(=O)CSc2nnc(-c3cc(C)n(-c4ccccc4)c3C)o2)c1`, the IC50 was > 35.9 µM (inactive).
With `Cc1ccc(OCC(=O)c2cc(C)n(-c3ccccc3)c2C)c([N+](=O)[O-])n1` the IC50 was “inactive”.
With `CN(C)S(=O)(=O)c1ccc(N2CCN(S(=O)(=O)c3ccc(F)cc3)CC2)c(Cl)c1` the IC50 was “inactive”.
For `CC(=O)Nc1ccc(SCC(=O)c2cc(C)n(-c3ccccc3)c2C)cc1`, the IC50 was > 35.9 µM (inactive).
`CCOc1cc(C(N)=O)cc(Br)c1OC` was tested, and the IC50 was “inactive”.
Work on `COc1cccc(-c2nnc3sc(C4CCCCC4)nn23)c1` yielded an IC50 of 3.46 µM.
For `O=c1[nH]c2ccccc2n1C1CCN(C(c2cc3ccccc3o2)c2nnnn2Cc2ccccc2)CC1` (stereo not given), the IC50 was “inactive”.
With `CCOc1ccc(-c2cc(C)n3nc(C(N)=O)cc3n2)cc1` the IC50 was “inactive”.
In the case of `CCOc1ccc(/C=C2\SC(=S)N(CCCC(=O)NCCCN3CCOCC3)C2=O)cc1`, the IC50 is reported as > 35.9 µM (inactive).
`O=C(NC1CCCCC1)C(c1cccnc1)N(C(=O)CCl)c1cccc(Cl)c1` (stereo not given) was tested, and the IC50 was “inactive”.
For `Cc1cccc2sc(NNC(=O)c3ccc(S(=O)(=O)N4CC(C)CC(C)C4)cc3)nc12` (stereo not given), the IC50 was 4.52 µM.
